In the test the target is T1, human PAR4 (Homo sapiens, UniProt Q96RI0).
T1 construct: expressed in transfected cells; host or cells: HEK293 PAR4 Clone 1.2A (BMS Arctic ID 383940)
T1 sequence (Q96RI0 18-385): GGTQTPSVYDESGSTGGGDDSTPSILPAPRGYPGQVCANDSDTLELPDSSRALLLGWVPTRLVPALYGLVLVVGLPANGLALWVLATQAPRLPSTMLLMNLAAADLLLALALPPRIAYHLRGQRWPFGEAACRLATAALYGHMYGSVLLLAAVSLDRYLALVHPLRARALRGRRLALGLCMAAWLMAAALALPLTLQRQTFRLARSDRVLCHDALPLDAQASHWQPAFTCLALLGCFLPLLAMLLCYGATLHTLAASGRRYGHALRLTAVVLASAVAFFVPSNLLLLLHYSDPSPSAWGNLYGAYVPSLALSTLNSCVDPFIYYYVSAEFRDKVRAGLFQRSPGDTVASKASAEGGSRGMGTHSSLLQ
Kind of test: PAR4 FLIPR assay: antagonism of agonist-peptide-induced calcium mobilization in PAR4-expressing HEK293 cells. The conditions noted are these: H-Ala-Phe(4-F)-[…]NH2-induced intracellular calcium mobilization, 11-point curves. It is filed as cell-based. A general note: Calcium assays in cells follow changes in intracellular calcium, usually with a dye or a luminescent sensor.

Each structure is given as a SMILES string. pIC50: −log10 of the molar value.

The values that follow come from US12060347B2 (BRISTOL-MYERS SQUIBB COMPANY, priority 2016, dated 2024).

Broadly, the pIC50 is the IC50 on a negative log10 scale, so that one unit is a factor of ten.

In the case of `COc1cnc2c(-c3nc4cc(F)c(O[C@@H](C)[C@@H](C)OC(=O)Nc5ccc(C)nn5)cc4s3)cc(C)cc2n1` [Example 416, (2R,3S)-3-((5-fluoro-2-(2-methoxy-7-methylquinoxalin-5-yl)benzo[d]thiazol-6-yl)oxy)butan-2-yl (6-methylpyridazin-3-yl)carbamate], the pIC50 is 7.49.

With `COc1cnc2c(-c3nc4c(Cl)c(F)c(OC[C@@H](C)OC(=O)Nc5cccnc5C)cc4s3)cc(C)cc2n1` [Example 590, (R)-1-((4-chloro-5-fluoro-2-(2-methoxy-7-methylquinoxalin-5-yl)benzo[d]thiazol-6-yl)oxy)propan-2-yl (2-methylpyridin-3-yl)carbamate], the negative-log IC50 (pIC50) was 7.60.

For `COc1cnc2c(-c3cc4cc(OC)c(F)c(Cl)c4o3)cc(CO)cc2n1` [Example 124, (8-(7-chloro-6-fluoro-5-methoxybenzofuran-2-yl)-3-methoxyquinoxalin-6-yl)methanol], the pIC50 was 8.74.

Turning to `COc1cnc2c(-c3nc4c(Cl)c(F)c(OCCOC(=O)Nc5csc(Cl)n5)cc4s3)cc(C)cc2n1` [Example 383, 2-((4-chloro-5-fluoro-2-(2-methoxy-7-methylquinoxalin-5-yl)benzo[d]thiazol-6-yl)oxy)ethyl (2-chlorothiazol-4-yl)carbamate], the pIC50 was 6.23.

With `COc1cncc(NC(=O)O[C@H](C)[C@H](C)Oc2cc3sc(-c4cc(C)cc5nc(OC)cnc45)nc3cc2F)c1` [Example 420, (2R,3S)-3-((5-fluoro-2-(2-methoxy-7-methylquinoxalin-5-yl)benzo[d]thiazol-6-yl)oxy)butan-2-yl (5-methoxypyridin-3-yl)carbamate], the pIC50 is 8.66.

Regarding `COc1cnc2c(-c3cc4cc(OC)c(F)cc4o3)cc(C)cc2n1` [Example 120, 5-(6-fluoro-5-methoxybenzofuran-2-yl)-2-methoxy-7-methylquinoxaline], the pIC50 is 7.55.

Turning to `COc1cnc2c(-c3nc4cc(F)c(OC[C@@H](C)OC(=O)Nc5cnc(OCCC(C)(C)O)nc5)cc4s3)cc(C)cc2n1` [Example 569, (R)-1-((5-fluoro-2-(2-methoxy-7-methylquinoxalin-5-yl)benzo[d]thiazol-6-yl)oxy)propan-2-yl (2-(3-hydroxy-3-methylbutoxy)pyrimidin-5-yl)carbamate], the pIC50 is 8.09.

For `COCc1cnc2c(-c3nc4c(F)cccc4s3)cc(C)cc2n1` [Example 273, 4-fluoro-2-(2-(methoxymethyl)-7-methylquinoxalin-5-yl)benzo[d]thiazole], the pIC50 was 8.37.

Regarding `COc1cnc2c(-c3nc4c(s3)CCCCC4)cc(C)cc2n1` [Example 137, 2-(2-methoxy-7-methylquinoxalin-5-yl)-5,6,7,8-tetrahydro-4H-cyclohepta[d]thiazole], the pIC50 was 7.54.

With `COCc1cnc2c(-c3nc4ccc(OC)cc4s3)cc(Cl)cc2n1` [Example 202, 2-(7-chloro-2-(methoxymethyl)quinoxalin-5-yl)-6-methoxybenzo[d]thiazole], the pIC50 was 9.05.

For `Cc1cc(-c2cc3cc(OCC(=O)OC(C)(C)C)ccc3o2)c2ncc(OC(F)F)nc2c1` [Example 49, tert-butyl 2-(2-(2-(difluoromethoxy)-7-methylquinoxalin-5-yl)benzofuran-5-yloxy) acetate], the pIC50 was 8.01.

Consider `Cc1cc(-c2nc3c(C)cc(OCCNS(=O)(=O)c4ccc(C(F)(F)F)cc4)cc3s2)c2ncc(OC(F)F)nc2c1` [Example 83, N-(2-(2-(2-(difluoromethoxy)-7-methylquinoxalin-5-yl)-4-methylbenzo[d]thiazol-6-yloxy)ethyl)-4-(trifluoromethyl)benzenesulfonamide], for which the negative-log IC50 (pIC50) is 7.96.

Take `COc1cnc2c(-c3nc4cc(F)c(O[C@@H](C)[C@@H](C)OC(=O)Nc5cnc(OCCO)nc5)nc4s3)cc(C)cc2c1` [Example 775, (2R,3S)-3-((6-fluoro-2-(3-methoxy-6-methylquinolin-8-yl)thiazolo[5,4-b]pyridin-5-yl)oxy)butan-2-yl (2-(2-hydroxyethoxy)pyrimidin-5-yl)carbamate]: the pIC50 is 9.10.
